Measurements reported in patent US20260001914A1, “MACROCYCLIC PEPTIDES TARGETING KRAS” (Merck Sharp & Dohme LLC, priority 2022, published 2026).
pEC50: −log10 of the molar value. *1 amine or outer side, *2 acyl side, *3 side chain or, on linkers, in order; H or OH if unused. Where a SMILES comes first, the peptide text is derived from it. Bridges are numbered along the chain shown (N, C = ends). [ ]: non-standard residue; d: D form. cBu(1-CO,cis-3-CH2NH) = O=C([C@H]1C[C@@H](CN[*:1])C1)[*:2]; Phe(4-guanidino) = N=C(N)Nc1ccc(C[C@H](N)C(=O)O)cc1; X60 = O=C([C@H](Cc1ccc(NC2=NCCN2)cc1)N[*:1])[*:2]; Ala(pyrimidin-5-yl) = N[C@@H](Cc1cncnc1)C(=O)O; NMe3Pal(6-Me) = CN[C@@H](Cc1ccc(C)nc1)C(=O)O; NMe3Pal(5-F) = CN[C@@H](Cc1cncc(F)c1)C(=O)O; 3Pal(6-OMe) = COc1ccc(C[C@H](N)C(=O)O)cn1; X25 = O=C([C@H](Cc1ccc(F)nc1)N[*:1])[*:2]; Abu(4,4,4-F3) = N[C@@H](CC(F)(F)F)C(=O)O; Phe(4-Cl) = N[C@@H](Cc1ccc(Cl)cc1)C(=O)O; X80 = Nc1nccn1CCC[C@H](N[*:1])C(=O)[*:2]; Phe(4-NH2) = Nc1ccc(C[C@H](N)C(=O)O)cc1; X13 = O=C([C@H](Cc1ccncc1F)N[*:1])[*:2]; X30 = O=C([C@H](Cc1ncccc1F)N[*:1])[*:2]; X46 = O=C([C@H](Cc1cccnc1F)N[*:1])[*:2]; Nle(5,5-F2) = CC(F)(F)CC[C@H](N)C(=O)O; Phe(4-Me) = Cc1ccc(C[C@H](N)C(=O)O)cc1; 1Nal = N[C@@H](Cc1cccc2ccccc12)C(=O)O; NHCH2CH2SCH2CO = O=C(CSCCN[*:1])[*:2]; X35 = CN([C@@H](CCCF)C(=O)[*:2])[*:1]; Phe(2-F) = N[C@@H](Cc1ccccc1F)C(=O)O; NMe3Pal = CN[C@@H](Cc1cccnc1)C(=O)O; X1 = O=C(C12CC(CN[*:1])(C1)C2)[*:2]; NMeAad = CN[C@@H](CCCC(=O)O)C(=O)O; Ala(cPr) = N[C@@H](CC1CC1)C(=O)O; NMeF = CN[C@@H](Cc1ccccc1)C(=O)O; PhLac = O=C(O)[C@@H](O)Cc1ccccc1; 3Pal = N[C@@H](Cc1cccnc1)C(=O)O; d3Pal = N[C@H](Cc1cccnc1)C(=O)O; X58 = O=C(C1CC(N[*:1])C1)[*:2]; Ahp(2) = CCCCC[C@H](N)C(=O)O; Cba = N[C@@H](CC1CCC1)C(=O)O; hLeu = CC(C)CC[C@H](N)C(=O)O; αMeC = C[C@](N)(CS)C(=O)O; NMeA = CN[C@@H](C)C(=O)O; Nle = CCCC[C@H](N)C(=O)O; AEEA = NCCOCCOCC(=O)O

These molecules were tested against KRAS-G12D protein (Homo sapiens, UniProt P01116, G12D) (assay: SOS-mediated nucleotide exchange assay (BODIPY-GDP / Tb-streptavidin TR-FRET)).
Chain of KRAS-G12D protein (P01116 1-188 isoform P01116-2 G12D): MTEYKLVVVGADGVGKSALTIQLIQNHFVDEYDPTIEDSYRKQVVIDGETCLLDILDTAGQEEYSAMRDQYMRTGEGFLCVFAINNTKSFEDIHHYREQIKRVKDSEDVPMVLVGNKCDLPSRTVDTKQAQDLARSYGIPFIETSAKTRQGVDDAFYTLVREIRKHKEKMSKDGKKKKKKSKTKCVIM
Assay type: biochemical

Compound	pEC50
CCCC[C@@H]1NC(=O)[C@H](Cc2cccnc2)NC(=O)[C@H](C)N(C)C(=O)[C@H](Cc2ccccc2)OC(=O)C23CC(CNC(=O)[C@H](Cc4ccc(C)nc4)N(C)C(=O)[C@H](CCCC)NC(=O)[C@H](Cc4ccccc4F)NC1=O)(C2)C3 [compound 402, cyclo(FLac-NMeA-3Pal-Nle-Phe2F-Nle-NMe3Pal4Me-amBCP)] (cyclo([3Pal][Nle][Phe(2-F)][Nle][NMe3Pal(6-Me)][X1][PhLac][NMeA]))	7.74
CC(C)CC[C@@H]1NC(=O)[C@H](Cc2ccccc2F)NC(=O)[C@H](CC2CC2)NC(=O)[C@H](Cc2cncnc2)NC(=O)[C@H](CCCF)N(C)C(=O)[C@H](Cc2ccccc2)OC(=O)C23CC(CNC(=O)[C@H](Cc4ccccc4)N(C)C1=O)(C2)C3 [compound 216, cyclo(FLac-NMeNvaF-PyrimAla-cPrA-Phe2F-hL-NMeF-amBCP)] (cyclo([Ala(cPr)][Phe(2-F)][hLeu][NMeF][X1][PhLac][X35][Ala(pyrimidin-5-yl)]))	7.59
CCCC[C@@H]1NC(=O)[C@H](Cc2ccc(NC(=N)N)cc2)NC(=O)[C@H](CCCNC(=N)N)NC(=O)[C@H](Cc2cccc3ccccc23)NC(=O)CSC[C@H](C(=O)O)NC(=O)[C@H](Cc2ccccc2)N(C)C(=O)[C@H](CCCC)NC(=O)[C@H](Cc2ccc(O)cc2)NC1=O [compound 141, cyclo(INal-R-Phe4Gn-Nle-Y-Nle-NMeF-dC-ClAc)] ({CH2CO}-[1Nal]R[Phe(4-guanidino)][Nle]Y[Nle][NMeF][dC]-OH; thioether N-8)	7.78
CCCC[C@@H]1NC(=O)[C@H](CCCCN)NC(=O)[C@H](CCCNC(=N)N)NC(=O)[C@H](C(c2ccccc2)c2ccccc2)NC(=O)CSC[C@H](C(N)=O)NC(=O)[C@H](Cc2ccccc2)N(C)C(=O)[C@H](CCCC)NC(=O)[C@H](Cc2ccc(O)cc2)NC1=O [compound 149, cyclo(Dip-R-K-Nle-Y-Nle-NMeF-dCl-ClAc)]	5.99
CCCC[C@@H]1NC(=O)[C@H](Cc2ccccc2F)NC(=O)[C@H](CC2CCC2)NC(=O)[C@@H](Cc2cccnc2)NC(=O)[C@H](CCCn2ccnc2N)NC(=O)[C@H](Cc2ccccc2)NC(=O)C23CC(CNC(=O)[C@H](Cc4cccnc4)N(C)C1=O)(C2)C3 [compound 110, cyclo(F-NH2IMNva-d3Pal-cBuA-Phe2F-Nle-NMe3Pal-amBCP)] (cyclo(F[X80][d3Pal][Cba][Phe(2-F)][Nle][NMe3Pal][X1]))	8.94
CCCCC[C@@H]1NC(=O)[C@H](Cc2ccc(O)cc2)NC(=O)[C@H](CC(C)C)NC(=O)[C@H](Cc2ccc(O)cc2)NC(=O)[C@H](CCCNC(=N)N)NC(=O)[C@H](Cc2ccccc2)NC(=O)CSC[C@@H](C(=O)NCCOCCOCC(=O)NCCOCCOCC(N)=O)NC(=O)[C@H](Cc2ccccc2)N(C)C1=O [compound 58, cyclo(F-R-Y-L-Y-Ahp-NMeF-C4-ClAc)] ({CH2CO}-FRYLY[Ahp(2)][NMeF]C[AEEA][AEEA]-NH2; thioether N-8)	6.36
CCCC[C@@H]1NC(=O)[C@H](Cc2cccnc2)NC(=O)[C@H](C)N(C)C(=O)[C@H](Cc2ccccc2)NC(=O)C23CC(CNC(=O)[C@H](Cc4cccnc4)N(C)C(=O)[C@H](CCCC)NC(=O)[C@H](Cc4ccccc4F)NC1=O)(C2)C3 [compound 162, cyclo(F-NMeA-3Pal-Nle-Phe2F-Nle-NMe3Pal-amBCP)] (cyclo(F[NMeA][3Pal][Nle][Phe(2-F)][Nle][NMe3Pal][X1]))	6.51
CCCC[C@@H]1NC(=O)[C@H](Cc2ccc(F)nc2)NC(=O)[C@H](C)N(C)C(=O)[C@H](Cc2ccccc2)OC(=O)C23CC(CNC(=O)[C@H](Cc4ccccc4)N(C)C(=O)[C@H](CCCC)NC(=O)[C@H](Cc4ncccc4F)NC1=O)(C2)C3 [compound 228, cyclo(FLac-NMeA-4F3Pal-Nle-2Pal6F-Nle-NMeF-amBCP)] (cyclo([NMeA][X25][Nle][X30][Nle][NMeF][X1][PhLac]))	6.06
CCCC[C@@H]1NC(=O)[C@H](Cc2ccc(NC(=N)N)cc2)NC(=O)[C@H](CCCNC(=N)N)NC(=O)[C@H](Cc2ccccc2)NC(=O)C2CC(C2)NC(=O)[C@H](Cc2ccccc2)N(C)C(=O)[C@H](CCCC)NC(=O)[C@H](Cc2ccc(OC)cc2)NC1=O [compound 92, cyclo(F-R-Phe4Gn-Nle-TyrOMe-Nle-NMeF-acBu)] (cyclo(FR[Phe(4-guanidino)][Nle]Y(Me)[Nle][NMeF][X58]))	7.86
CC(C)CC[C@@H]1NC(=O)[C@H](Cc2ccncc2F)NC(=O)[C@H](CC2CC2)NC(=O)[C@H](Cc2cncnc2)NC(=O)[C@H](C)N(C)C(=O)[C@H](Cc2ccccc2)OC(=O)C23CC(CNC(=O)[C@H](Cc4ccccc4)N(C)C1=O)(C2)C3 [compound 214, cyclo(FLac-NMeA-PyrimAla-cPrA-4Pal2F-hL-NMeF-amBCP)] (cyclo([Ala(cPr)][X13][hLeu][NMeF][X1][PhLac][NMeA][Ala(pyrimidin-5-yl)]))	8.57
CCCC[C@@H]1NC(=O)[C@H](Cc2cccnc2)NC(=O)[C@H](C)N(C)C(=O)[C@H](Cc2ccc(C)cc2)NC(=O)C23CC(CNC(=O)[C@H](Cc4cccnc4)N(C)C(=O)[C@H](CCCC)NC(=O)[C@H](Cc4ccccc4F)NC1=O)(C2)C3 [compound 170, cyclo(Phe4Me-NMeA-3Pal-Nle-Phe2F-Nle-NMe3Pal-amBCP)] (cyclo([3Pal][Nle][Phe(2-F)][Nle][NMe3Pal][X1][Phe(4-Me)][NMeA]))	7.04
C[C@H]1C(=O)N[C@@H](Cc2cccnc2)C(=O)N[C@@H](CC2CCC2)C(=O)N[C@@H](Cc2ccccc2F)C(=O)N[C@@H](CCC(C)(F)F)C(=O)N(C)[C@@H](Cc2cncc(F)c2)C(=O)NCC23CC(C2)(C3)C(=O)O[C@@H](Cc2ccccc2)C(=O)N1C [compound 285, cyclo(FLac-NMeA-3Pal-cBuA-Phe2F-Nle3F2-NMe3Pal5F-amBCP)] (cyclo([3Pal][Cba][Phe(2-F)][Nle(5,5-F2)][NMe3Pal(5-F)][X1][PhLac][NMeA]))	7.89
CCCC[C@@H]1NC(=O)[C@H](Cc2ccc(O)cc2)NC(=O)[C@H](CC(C)C)NC(=O)[C@H](Cc2ccc(O)cc2)NC(=O)[C@H](CCCNC(=N)N)NC(=O)[C@H](Cc2ccc(Cl)cc2)NC(=O)CSCCNC(=O)[C@H](Cc2ccccc2)N(C)C1=O [compound 74, cyclo(-Phe4Cl-R-Y-L-Y-Nle-NMeF-Cysteamine-ClAc)] (cyclo(LY[Nle][NMeF][NHCH2CH2SCH2CO][Phe(4-Cl)]RY))	5.15
CCCC[C@@H]1NC(=O)[C@H](Cc2ccccc2F)NC(=O)[C@H](CC2CCC2)NC(=O)[C@@H](Cc2cccnc2)NC(=O)[C@H](CCCNC(=N)N)NC(=O)[C@H](Cc2ccccc2)NC(=O)C23CC(CNC(=O)[C@H](Cc4cccnc4)N(C)C1=O)(C2)C3 [compound 103, cyclo(F-R-d3Pal-cBuA-Phe2F-Nle-NMe3Pal-amBCP)] (cyclo(FR[d3Pal][Cba][Phe(2-F)][Nle][NMe3Pal][X1]))	8.50
CCCC[C@@H]1NC(=O)[C@H](Cc2ccc(O)cc2)NC(=O)[C@H](CC(C)C)NC(=O)[C@H](Cc2ccc(N)cc2)NC(=O)[C@H](CCCNC(=N)N)NC(=O)[C@H](Cc2ccccc2)NC(=O)CSCCNC(=O)[C@H](Cc2ccccc2)N(C)C1=O [compound 79, cyclo(F-R~Phe4NH2-L-Y-Nle-NMeF-Cysteamine-ClAc)] (cyclo(FR[Phe(4-NH2)]LY[Nle][NMeF][NHCH2CH2SCH2CO]))	5.63
CCCCC[C@@H]1NC(=O)[C@H](Cc2ccc(OC)cc2)NC(=O)[C@H](CC2CCC2)NC(=O)[C@H](Cc2ccc(OC)nc2)NC(=O)[C@H](CCCNC(=N)N)NC(=O)[C@H](Cc2ccccc2)NC(=O)CSC[C@@](C)(C(N)=O)NC(=O)[C@H](Cc2ccccc2)N(C)C1=O [compound 365, cyclo(F-R-40Me3Pal-cBuA-TyrOMe-Ahp-NMeF-aMeCl-ClAc)] ({CH2CO}-FR[3Pal(6-OMe)][Cba]Y(Me)[Ahp(2)][NMeF][αMeC]-NH2; thioether N-8)	7.30
CCCC[C@@H]1NC(=O)[C@H](Cc2cccnc2)NC(=O)[C@H](CCCC(=O)N(C)C)N(C)C(=O)[C@H](Cc2ccccc2)OC(=O)C23CC(CNC(=O)[C@H](Cc4cccnc4)N(C)C(=O)[C@H](CCCC)NC(=O)[C@H](Cc4ccccc4F)NC1=O)(C2)C3 [compound 408, cyclo(FLac-hQdm-3Pal-Nle-Phe2F-Nle-NMe3Pal-amBCP)] (cyclo([3Pal][Nle][Phe(2-F)][Nle][NMe3Pal][X1][PhLac][NMeAad](NMe2)))	6.79
CCCC[C@@H]1NC(=O)[C@H](Cc2ccc(NC3=NCCN3)cc2)NC(=O)[C@H](CCCNC(=N)N)NC(=O)[C@H](Cc2ccccc2)NC(=O)[C@H]2C[C@@H](CNC(=O)[C@H](Cc3ccccc3)N(C)C(=O)[C@H](CCCC)NC(=O)[C@H](Cc3ccc(OC)cc3)NC1=O)C2 [compound 207, cyclo(F-R-Phe4Gnc2-Nle-TyrOMe-Nle-NMeF-c3amCblc)] (cyclo(FR[X60][Nle]Y(Me)[Nle][NMeF][cBu(1-CO,cis-3-CH2NH)]))	7.81
CCCCC[C@@H]1NC(=O)[C@H](Cc2ccc(OC)cc2)NC(=O)[C@H](CC2CCC2)NC(=O)[C@H](Cc2cccnc2)NC(=O)[C@H](C)N(C)C(=O)[C@H](Cc2ccccc2)NC(=O)CSC[C@@](C)(C(N)=O)NC(=O)[C@H](Cc2ccccc2)N(C)C1=O [compound 158, cyclo(F-NMeA-3Pal-cBuA-TyrOMe-Ahp-NMeF-aMeCl-ClAc)] ({CH2CO}-F[NMeA][3Pal][Cba]Y(Me)[Ahp(2)][NMeF][αMeC]-NH2; thioether N-8)	6.84
CCCC[C@@H]1NC(=O)[C@H](CC(F)(F)F)NC(=O)[C@H](CC2CCC2)NC(=O)[C@H](Cc2cccnc2)NC(=O)[C@H](CCCNC(=N)N)NC(=O)[C@H](Cc2ccccc2)NC(=O)CSC[C@@](C)(C(N)=O)NC(=O)[C@H](Cc2ccccc2)N(C)C1=O [compound 54, cyclo(F-R-3Pal-cBuA-AbuF3-Nle-NMeF-aMeCl-ClAc)] ({CH2CO}-FR[3Pal][Cba][Abu(4,4,4-F3)][Nle][NMeF][αMeC]-NH2; thioether N-8)	6.07
CCCC[C@@H]1NC(=O)[C@H](Cc2cccnc2F)NC(=O)[C@H](C)N(C)C(=O)[C@H](Cc2ccccc2)OC(=O)C23CC(CNC(=O)[C@H](Cc4cccnc4)N(C)C(=O)[C@H](CCCC)NC(=O)[C@H](Cc4ccccc4F)NC1=O)(C2)C3 [compound 117, cyclo(FLac-NMeA~3Pal2F-Nle-Phe2F-Nle-NMe3Pal-amBCP)] (cyclo([NMe3Pal][X1][PhLac][NMeA][X46][Nle][Phe(2-F)][Nle]))	5.84
